The compounds below were run against T1, human Werner helicase (WRN-BV08, Uniprot Q14191, amino acids 517-1235 with L1074F point mutation) (Homo sapiens, UniProt Q14191, L1074F) (assay: WRN (BV08) ADP-Glo Assay). Details: 0.15 nM WRN, 5 μM ATP, 0.1 nM DNA duplex, 15 min preincubation, 60 min at 25° C., pH 7.5, 1% DMSO; read-out: ADP-Glo_hWRN_IC50.
T1 construct: Uniprot Q14191, amino acids 517-1235 with L1074F point mutation; TEV-cleavable 8×His (C, cleaved yes); made in house; host or cells: Sf9 insect cells (baculovirus)
T1 sequence (Q14191 with tags, fused parts or gaps L1074F limits assumed): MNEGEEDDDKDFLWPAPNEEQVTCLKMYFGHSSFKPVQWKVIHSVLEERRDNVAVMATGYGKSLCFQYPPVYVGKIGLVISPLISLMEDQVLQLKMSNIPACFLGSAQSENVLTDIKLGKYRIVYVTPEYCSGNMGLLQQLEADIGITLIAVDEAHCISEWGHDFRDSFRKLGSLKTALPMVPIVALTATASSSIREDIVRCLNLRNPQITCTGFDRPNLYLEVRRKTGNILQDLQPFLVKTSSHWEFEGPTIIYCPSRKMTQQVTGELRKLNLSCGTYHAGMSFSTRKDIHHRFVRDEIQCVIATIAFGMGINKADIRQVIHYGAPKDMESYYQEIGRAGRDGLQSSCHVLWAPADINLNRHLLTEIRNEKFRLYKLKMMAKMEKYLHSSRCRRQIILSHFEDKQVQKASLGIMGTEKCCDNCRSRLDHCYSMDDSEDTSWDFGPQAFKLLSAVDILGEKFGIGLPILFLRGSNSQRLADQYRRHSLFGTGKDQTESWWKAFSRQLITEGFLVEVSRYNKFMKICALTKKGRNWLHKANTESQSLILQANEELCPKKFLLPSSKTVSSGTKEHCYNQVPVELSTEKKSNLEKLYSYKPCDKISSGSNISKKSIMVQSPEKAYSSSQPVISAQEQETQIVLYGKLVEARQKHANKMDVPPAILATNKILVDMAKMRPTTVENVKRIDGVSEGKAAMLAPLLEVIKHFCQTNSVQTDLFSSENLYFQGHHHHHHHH
Format: biochemical
Method in brief: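 Percent inhibition was normalised to DMSO (max) and 20 μM NSC-617145 (min) controls from ADP-Glo luminescence, and IC50 values came from a four-parameter fit. The reaction ran 60 min at 25 °C with 0.15 nM WRN, 5 μM ATP and 0.1 nM duplex DNA.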

Row | SMILES | IC50 [µM]
1 | CS(=O)(=O)c1ccccc1CN(C(=O)Cc1ccc(-n2cccc2)cc1)C1C=CS(=O)(=O)C1 (stereo not shown) [I-322, N-(1,1-dioxo-2,3-dihydro-1lambda6-thiophen-3-yl)-N-[(2-methanesulfonylphenyl)methyl]-2-[4-(1H-pyrrol-1-yl)phenyl]acetamide] | 10 to 50
2 | COCC(C(=O)N(Cc1ccnc(C(C)(C)O)c1)C1C=CS(=O)(=O)C1)n1cc(-c2ccccc2)cn1 (stereo not shown) [I-324, N-(1,1-dioxo-2,3-dihydro-1lambda6-thiophen-3-yl)-N-{[2-(2-hydroxypropan-2-yl)pyridin-4-yl]methyl}-3-methoxy-2-(4-phenyl-1H-pyrazol-1-yl)propanamide] | 10 to 50
3 | O=C(Cn1cnc(-c2ccccc2)cc1=O)N(Cc1ccncc1)C1C=CS(=O)(=O)C1 (stereo not shown) [I-325, N-(1,1-dioxo-2,3-dihydro-1lambda6-thiophen-3-yl)-2-(6-oxo-4-phenyl-1,6-dihydropyrimidin-1-yl)-N-[(pyridin-4-yl)methyl]acetamide] | 10 to 50
4 | O=C(Cn1nc(-c2ccccc2)ccc1=O)N(Cc1ccncc1)C1C=CS(=O)(=O)C1 (stereo not shown) [I-326, N-(1,1-dioxo-2,3-dihydro-1lambda6-thiophen-3-yl)-2-(6-oxo-3-phenyl-1,6-dihydropyridazin-1-yl)-N-[(pyridin-4-yl)methyl]acetamide] | 10 to 50
5 | O=C(C(c1ccc(-c2ccc(F)cc2)cc1)N1CCCC1=O)N(Cc1ccncc1)C1C=CS(=O)(=O)C1 (stereo not shown) [I-328, N-(1,1-dioxo-2,3-dihydro-1lambda6-thiophen-3-yl)-2-{4′-fluoro-[1,1′-biphenyl]-4-yl}-2-(2-oxopyrrolidin-1-yl)-N-[(pyridin-4-yl)methyl]acetamide] | 10 to 50
6 | Cc1cccc(-c2nc(CC(=O)N(Cc3ccncc3)C3C=CS(=O)(=O)C3)cs2)c1 (stereo not shown) [I-333, N-(1,1-dioxo-2,3-dihydro-1lambda6-thiophen-3-yl)-2-[2-(3-methylphenyl)-1,3-thiazol-4-yl]-N-[(pyridin-4-yl)methyl]acetamide] | > 50
7 | Cc1nc(CN(C(=O)Cc2ccc(-n3cccc3)cc2)C2C=CS(=O)(=O)C2)cs1 (stereo not shown) [I-335, N-(1,1-dioxo-2,3-dihydro-1lambda6-thiophen-3-yl)-N-[(2-methyl-1,3-thiazol-4-yl)methyl]-2-[4-(1H-pyrrol-1-yl)phenyl]acetamide] | 10 to 50
8 | COC(C(=O)N(Cc1ccccc1)C1C=CS(=O)(=O)C1)c1ccc(-n2cccc2)cc1 (stereo not shown) [I-337, N-benzyl-N-(1,1-dioxo-2,3-dihydro-1lambda6-thiophen-3-yl)-2-methoxy-2-[4-(1H-pyrrol-1-yl)phenyl]acetamide] | 10 to 50

The next lines start with the values.

Row | IC50 [µM] | SMILES
9 | 10 to 50 | O=C(Cc1ccc(-c2ccccc2)cc1)N(Cc1ccncc1)C1C=CS(=O)(=O)C1 (stereo not shown) [I-323, 2-{[1,1′-biphenyl]-4-yl}-N-(1,1-dioxo-2,3-dihydro-1lambda6-thiophen-3-yl)-N-[(pyridin-4-yl)methyl]acetamide]
10 | 10 to 50 | O=C(Cc1ccc(-n2cccc2)c(F)c1)N(Cc1ccncc1)C1C=CS(=O)(=O)C1 (stereo not shown) [I-327, N-(1,1-dioxo-2,3-dihydro-1lambda6-thiophen-3-yl)-2-[3-fluoro-4-(1H-pyrrol-1-yl)phenyl]-N-[(pyridin-4-yl)methyl]acetamide]
11 | 10 to 50 | O=C(Cc1ccc(OC(F)F)cc1)N(Cc1ccncc1)C1C=CS(=O)(=O)C1 (stereo not shown) [I-331, 2-[4-(difluoromethoxy)phenyl]-N-(1,1-dioxo-2,3-dihydro-1lambda6-thiophen-3-yl)-N-[(pyridin-4-yl)methyl]acetamide]
12 | 10 to 50 | O=C(Cc1ccc(-c2ccc(F)cc2C(F)F)cc1)N(Cc1ccncc1)C1C=CS(=O)(=O)C1 (stereo not shown) [I-334, 2-[2′-(difluoromethyl)-4′-fluoro-[1,1′-biphenyl]-4-yl]-N-(1,1-dioxo-2,3-dihydro-1lambda6-thiophen-3-yl)-N-[(pyridin-4-yl)methyl]acetamide]
13 | 10 to 50 | O=C(Cc1ccc(-c2cccs2)cc1)N(Cc1ccncc1)C1C=CS(=O)(=O)C1 (stereo not shown) [I-338, N-(1,1-dioxo-2,3-dihydro-1lambda6-thiophen-3-yl)-N-[(pyridin-4-yl)methyl]-2-[4-(thiophen-2-yl)phenyl]acetamide]

Reference: US20260297070A1, “CYCLIC [COMPOUND LEFT OUT] WRN INHIBITORS” (Nimbus Wadjet, Inc., priority 2023, published 2026)
